This assay addresses Hem1p (Hem1-His6) (Saccharomyces cerevisiae, UniProt P09950). The assay is described as follows: ALA synthase activity, control reactions. Conditions: concentration not told. It is filed as biochemical.

Hem1p (Hem1-His6), sequence (P09950 10-548): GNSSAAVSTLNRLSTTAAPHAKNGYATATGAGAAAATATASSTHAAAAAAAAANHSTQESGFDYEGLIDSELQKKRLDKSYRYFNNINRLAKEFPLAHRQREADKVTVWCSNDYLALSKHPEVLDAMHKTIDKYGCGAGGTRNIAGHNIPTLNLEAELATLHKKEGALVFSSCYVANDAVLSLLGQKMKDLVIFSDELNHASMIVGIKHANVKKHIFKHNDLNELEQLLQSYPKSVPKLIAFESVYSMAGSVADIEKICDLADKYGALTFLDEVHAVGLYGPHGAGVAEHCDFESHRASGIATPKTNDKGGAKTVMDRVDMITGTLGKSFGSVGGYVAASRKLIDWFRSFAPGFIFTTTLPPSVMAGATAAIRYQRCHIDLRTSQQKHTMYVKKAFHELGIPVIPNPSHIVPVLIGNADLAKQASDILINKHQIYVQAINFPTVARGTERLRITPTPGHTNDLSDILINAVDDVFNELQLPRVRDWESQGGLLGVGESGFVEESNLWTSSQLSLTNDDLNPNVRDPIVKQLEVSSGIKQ

As to `N[C@@H](CS)C(=O)O` [L-cysteine], the “ALA synthase activity, control reactions” value is “Control reactions showed that Hem1p was inhibited by both L-serine and L-cysteine”. The value for `N[C@@H](CO)C(=O)O` [L-serine] was “Control reactions showed that Hem1p was inhibited by both L-serine and L-cysteine”.

These data come from article PMC8958428 (Yeast (Chichester, England), 2021).
